Data published in patent US8551958B2, “Galactosylated pro-drugs of non-steroidal anti-inflammatories with improved pharmacokinetic characteristics and reduced toxicity of the starting drug” (Stewart Italia Srl, priority 2008, dated 2013).

Legend:
male Swiss mice = assay: Chronic and sub-chronic experiments: liver, kidney and stomach examination; assay type: in vivo
Method: (§1) Animals were sacrificed and then liver, stomach and kidney were collected in glass tubes and analysed histologically and biochemically.
(§2) Liver samples were fixed in 10% buffered formalin and embedded in paraffin, sliced, and stained with hematoxylin & eosin (H&E) for assessment of liver pathology. […] To confirm histological data, western blot analysis for TNF-alpha, IL-6 and malonyldialdehyde assay were then performed in liver lysates.

TNF-alpha = assay: Western blot in liver lysates, TNF-alpha; assay type: in vivo, mice; conditions: ketogal 16.3 mg/Kg oral for 3, 5 and 7 days
Method: as §1, §2

[1] = test system: writhing induced by magnesium sulphate; assay: Writhing induced by magnesium sulphate (visceral pain); assay type: in vivo, mouse; conditions: ketorolac 0.01 to 10 mg/kg, Ketogal in equimolar dose; 1 hour before magnesium sulphate 120 mg/kg
Method: In order to determine whether ketorolac and Ketogal are able to inhibit visceral pain, the effects of these compounds on “writhing” induced by magnesium sulphate were tested. Magnesium sulphate induces a reversible response when injected by intraperitoneal route in the mouse. The administration of 120 mg/kg of magnesium sulphate induces an average of 6±0.9 episodes of “writhing” in the mouse (n=6).

[2] = Chemical stability of the pro-drug (phosphate buffer pH 7.4; HCl 0.1 N pH 1), HPLC; assay type: physicochemical; conditions: in the dark
Method: For the stability study, the solutions of pro-drug were prepared by dissolving an aliquot of Ketogal in a phosphate buffer at pH 7.4, or else in a solution of HCl 0.1 N (pH 1), as regards chemical stability, or else in a plasma specimen, for enzymatic stability. The solutions were kept in the dark, at a temperature of 37° C., for 24 hours. After each hour an aliquot of specimen was taken. In the case of plasma, said aliquot was previously extracted with acetonitrile (1:2), “vortexed” and centrifuged at 3000 r.p.m. for 10 min. The supernatant was taken and used for analysis at HPLC with diode detector. The half-lives for chemical stability and enzymatic stability were calculated by quantizing, in time, the percentage of pro-drug that remained in solution. For the chromatographic separations, a 1090L HPLC (Hewlett-Packard, Palo Alto, USA) was used, coupled to a diode detector HP 1040A. A Phenomenex Luna C18 (250×4.6 mm, 5 μm) column was used. The wavelength used was 313 nm. The mobile phase was constituted by acetonitrile and an aqueous solution of phosphoric acid […] (pH 3) in the ratio of 68:32. The flow was 1 mL/min, with an injection volume of 20 μl. All the reagents and the solvents used were of analytical degree. The distilled and deionized water was purified by means of a Milli Q system (Millipore). The retention times of the compounds were: ketorolac: 6.7 min; Ketogal: 3.8 min. As internal standard tolmetin was used (9.3 min). The straight line of calibration for quantification of the compounds was constructed using standard solutions with concentrations of between 0.1 and 100 μg/ml. The linearity was obtained with a coefficient of regression (R^2) of approximately 0.998.
For the study of the stability, the solutions of pro-drug were prepared by dissolving an aliquot of Flugal in a phosphate buffer at pH 7.4, as regards chemical stability, or else in a plasma specimen, for enzymatic stability. The solutions were kept in the dark, at a temperature of 37° C., for 24 hours. After each hour an aliquot of specimen was taken. In the case of the plasma said amount was previously extracted with acetonitrile (1:2), “vortexed”, and centrifuged at 3000 r.p.m. for 10 min. The supernatant was taken and used for analysis at HPLC with diode detector. The half-lives for the chemical stability and enzymatic stability were calculated by quantizing, in time, the percentage of pro-drug that remained in solution. A 1090L HPLC (Hewlett-Packard, Palo Alto, USA) coupled to a diode detector HP 1040A was used for the chromatographic separations. The column used was a Supelcosil LC-18, 250×4.6 mm, particle size […]. The volume injected was […] and the flow of 1 mL/min. The mobile phase was constituted by a mixture of aqueous CH3CN/H3PO4 1 mM (pH 3) [32:68]. For the quantitative determination reading was made at 250 nm. The retention times of the various compounds involved in the analysis were: for Flugal 6 min and for flurbiprofen 11 min. All the reagents and the solvents used were of analytical degree. The distilled and deionized water was purified by means of a Milli Q system (Millipore). The straight line of calibration for the quantification of the compounds was constructed using standard solutions with concentrations of between 0.1 and 100 μg/ml. Linearity was obtained with a coefficient of regression (R^2) of approximately 0.998. From the results of said analysis (illustrated in Table 3) it emerges that the pro-drug Flugal has a good chemical stability and a good susceptibility to enzymatic hydrolysis.
Chemical stability was assessed also at pH 1.0 in a solution of HCl 0.1N as described.
For the stability study, the solutions of pro-drug were prepared by dissolving an aliquot of Okigal in a phosphate buffer at pH 7.4, or else in a solution of HCl 0.1 N (pH 1), as regards chemical stability, or else in a plasma specimen, for enzymatic stability. The solutions were kept in the dark, at a temperature of 37° C., for 24 hours. […]

PGE synthase = assay: Western blot, stomach, PGE synthase protein expression; assay type: in vivo, mice; conditions: ketorolac 10 mg/Kg, ketogal 16.3 mg/Kg, oral, 3, 5 and 7 days
Description: as §1

COX-1 = assay: Western blot, stomach, COX-1 protein expression; assay type: in vivo, mice; conditions: ketorolac 10 mg/Kg, ketogal 16.3 mg/Kg, oral, 3, 5 and 7 days; versus control stomachs
Description: as §1

Liver histology (H&E) (male Swiss mice; ketogal 16.3 mg/Kg oral for 3, 5 and 7 days): normal liver histology
Kidney histology (male Swiss mice; ketorolac 10 mg/Kg, ketogal 16.3 mg/Kg, oral, after 3, 5 and 7 days): normal kidney histology
TNF-alpha level in liver (TNF-alpha): no different compared to control mice
pH 7.4 T½ ([2]; phosphate buffer at pH 7.4, 37° C.): >4 hours
pH 1 T½ ([2]; solution of HCl 0.1 N (pH 1), 37° C.): 2.1 hours
SMILES: O=C(c1ccccc1)c1ccc2n1CC[C@@H]2C(=O)OCC1O[C@H](O)C(O)C(O)[C@H]1O (mixture of isomers) [Ketogal, ketorolac-D-galactos-6′-yl ester]
Hepatic inflammation and/or damage (biochemical analysis) (male Swiss mice; ketogal 16.3 mg/Kg oral for 3, 5 and 7 days, liver lysates): no hepatic inflammation and/or damage
Stomach samples, ulcerogenicity (male Swiss mice; ketorolac 10 mg/Kg, ketogal 16.3 mg/Kg, oral, for 3 days): undamaged and similar to control
Inhibition of writhing induced by magnesium sulphate [1]: able to inhibit this response in a dose-dependent way
Gastric PGE synthase protein expression (PGE synthase): not inhibited
Gastric COX-1 protein expression (COX-1): not inhibited
